This is an account of results in BindingDB's records for doi:10.1021/acsmedchemlett.8b00549 (Stellenbosch University, 2019).

Assay [1] can be described thus: Inhibition of wild-type HIV1 reverse transcriptase in HIV1 infected HEK293T cells harboring luciferase gene assessed as reduction in viral infection after 48 hrs by Bright-Glo luciferase assay.
A short description of assay [2]: Inhibition of HIV1 reverse transcriptase Y181C mutant in HIV1 infected HEK293T cells harboring luciferase gene assessed as reduction in viral infection after 48 hrs by Bright-Glo luciferase assay.
Assay [3] in a line: Inhibition of HIV1 reverse transcriptase K103N mutant in HIV1 infected HEK293T cells harboring luciferase gene assessed as reduction in viral infection after 48 hrs by Bright-Glo luciferase assay.
Assay [4] is described as follows: Inhibition of HIV1 reverse transcriptase Y188C mutant in HIV1 infected HEK293T cells harboring luciferase gene assessed as reduction in viral infection after 48 hrs by Bright-Glo luciferase assay.
The nature of assay [5]: Inhibition of HIV1 reverse transcriptase V106M mutant in HIV1 infected HEK293T cells harboring luciferase gene assessed as reduction in viral infection after 48 hrs by Bright-Glo luciferase assay.
A short description of assay [6]: Inhibition of HIV1 reverse transcriptase G190A mutant in HIV1 infected HEK293T cells harboring luciferase gene assessed as reduction in viral infection after 48 hrs by Bright-Glo luciferase assay.
Assay [7] in a line: Inhibition of HIV1 reverse transcriptase Y188H mutant in HIV1 infected HEK293T cells harboring luciferase gene assessed as reduction in viral infection after 48 hrs by Bright-Glo luciferase assay.
A short description of assay [8]: Inhibition of HIV1 reverse transcriptase K103N/Y181C double mutant in HIV1 infected HEK293T cells harboring luciferase gene assessed as reduction in viral infection after 48 hrs by Bright-Glo luciferase assay.

Usually IC50 stands for the concentration needed to halve the response being measured.

SMILES strings stand for the structures.

In the case of `CCn1c(=O)[nH]c2cccc(Oc3cccc4ccccc34)c21`, in assay [1], the IC50 was found to be 2270 nM.
As for `CCC(c1ccccc1)n1c(=O)[nH]c2ccc(Cl)cc21` (stereo unspecified), the IC50 in assay [1] was 36 nM; in assay [2], above 200 nM; in assay [3], above 200 nM.
For the compound `CC1(C)OC(=O)Nc2cccc(Oc3cc(Cl)cc(C#N)c3)c21`, the IC50 was 21 nM in assay [1]; 7 nM in assay [4]; 630 nM in assay [5]; 2760 nM in assay [6]; 1150 nM in assay [7]; 28 nM in assay [2]. Moreover, the IC50 is 798 nM in assay [3] and 894 nM in assay [8].
`CCn1c(=O)[nH]c2cccc(Oc3ccnc(C#N)c3)c21`: the IC50 in assay [1] is 13300 nM.
The same measure, in the same setting: next, `CCCn1c(=O)[nH]c2cccc(Oc3cc(Cl)cc(C#N)c3)c21`: 50 nM.
On to `Cn1c(=O)[nH]c2cccc(Oc3cc(Cl)cc(C#N)c3)c21`, for which the IC50 worked out at 29 nM in assay [1]; 236 nM in assay [4]; 494 nM in assay [5]; 107 nM in assay [6]; 74 nM in assay [7]; 55 nM in assay [2]. Moreover, the IC50 in assay [3] amounted to 126 nM.
`CCn1c(=O)[nH]c2cccc(Oc3cc(Cl)cc(C#N)c3)c21`: the IC50 in assay [1] came out at 26 nM; in assay [4], 7 nM; in assay [5], 293 nM; in assay [6] it was 126 nM; in assay [7], 415 nM; in assay [2] it was 18 nM. Moreover, the IC50 in assay [3] amounted to 111 nM; in assay [8], 52 nM.
For the compound `CCOC(=O)c1[nH]c2ccc(Cl)cc2c1C(SC)c1ccccc1` (stereo unspecified), the IC50 in assay [1] is 39 nM.
Regarding `CCOC(=O)c1[nH]c2ccc(Cl)cc2c1C(SC)c1cc(C)cc(C)c1` (stereo unspecified), the IC50 in assay [1] amounted to 60 nM.
On the same count and under the same terms, next, `CCn1c(=O)[nH]c2cccc(Oc3cc(C#N)ccn3)c21`: 1360 nM.
As to `CCn1c(=O)[nH]c2cccc(Oc3cc(C#N)cc(C#N)c3)c21`, the IC50 in assay [1] worked out at 63 nM.
The same measure, in the same setting: next, `CCOC(=O)c1[nH]c2ccc(Cl)cc2c1C(OC)c1cc(C)cc(C)c1` (stereo unspecified): 34 nM; `CCOC(=O)c1[nH]c2ccc(Cl)cc2c1C(OC)c1ccccc1` (stereo unspecified): 16 nM.
With `CCn1c(=O)[nH]c2cccc(Oc3cc(C#N)cc(/C=C/C#N)c3)c21`, the IC50 in assay [1] was determined as 49 nM; in assay [4], 14 nM; in assay [5] it was 926 nM; in assay [6] it was 377 nM; in assay [7], 468 nM; in assay [2] it was 73 nM. Moreover, the IC50 in assay [3] was 166 nM; in assay [8], 51 nM.
On to `CCn1c(=O)[nH]c2cccc(Oc3ccccc3)c21`, for which the IC50 in assay [1] is 3880 nM.
The same measure, in the same setting: next, `CCn1c(=O)[nH]c2cccc(Oc3cc(C)cc(C)c3)c21`: 303 nM; `CCn1c(=O)[nH]c2cccc(Oc3ccnc(Cl)c3)c21`: above 44100 nM.
